Laboratory results: US20090093493A1, “1-PHENYLALCOXY-2-BETA-PHENYLETHYL DERIVATIVES AS P-GLYCOPROTEIN (P-GP) INHIBITORS USEFUL IN DRUG RESISTANCE EVENTS” (priority 2007, published 2009)
Read-outs that look alike come from different tables or passages of the source.

Tests used:
P-glycoprotein [1] = biological target: T1, P-glycoprotein (Homo sapiens, UniProt P08183); assay: Doxorubicin accumulation in MCF7/Adr cells after pretreatment with compound (flow cytometry); conditions: for endocellular accumulation: above-described assays
Description: (§1) Another assay is performed on MCF-7/ADr cells. These cells, resistant to the chemotherapy agent doxorubicin, are exposed for some hours to the compound under examination and subsequently treated with doxorubicin. The amount of doxorubicin entering the cell following treatment with the compounds under examination is then measured.
(§2) At the end of the incubation, the incubation medium containing the compound under examination was removed, and fresh medium containing 50 μM doxorubicin was added for 24 h. The negative control consisted of plates containing an alike number of cells untreated with the compound. At the end of the 24 h, the medium was removed and the cells split and prepared according to standard procedure for flow cytometry analysis.

P-glycoprotein [2] = biological target: T1, P-glycoprotein
Description: as §1, §2

P-gp [3] = biological target: T2, P-gp (Homo sapiens, UniProt P08183); assay: Classification of compounds interfering with P-gp activity (method of Polli et al. / Taub et al.); type: cell-based; parameters: apparent permeability determined in Caco-2 cells; endogenous in cells; host or cells: Caco-2; conditions: above-described assays
Excerpt: The biological assays performed verify a) transport for each for each candidate compound by P-gp (apparent permeability determined in Caco-2 cells); b) ATP-ase activation in Caco-2 cells; c) inhibition of [^3H] Vinblastine basolateral-apical transport (in Caco-2 cells) and of rhodamine (in guinea pig ileum).

P-gp [4] = biological target: T2, P-gp; conditions: reported in literature; cited from earlier work
[5] = MCF7/Adr, 20 μM compound for 120 min, then 50 μM doxorubicin for 24 h

T1 sequence (P08183 whole entry): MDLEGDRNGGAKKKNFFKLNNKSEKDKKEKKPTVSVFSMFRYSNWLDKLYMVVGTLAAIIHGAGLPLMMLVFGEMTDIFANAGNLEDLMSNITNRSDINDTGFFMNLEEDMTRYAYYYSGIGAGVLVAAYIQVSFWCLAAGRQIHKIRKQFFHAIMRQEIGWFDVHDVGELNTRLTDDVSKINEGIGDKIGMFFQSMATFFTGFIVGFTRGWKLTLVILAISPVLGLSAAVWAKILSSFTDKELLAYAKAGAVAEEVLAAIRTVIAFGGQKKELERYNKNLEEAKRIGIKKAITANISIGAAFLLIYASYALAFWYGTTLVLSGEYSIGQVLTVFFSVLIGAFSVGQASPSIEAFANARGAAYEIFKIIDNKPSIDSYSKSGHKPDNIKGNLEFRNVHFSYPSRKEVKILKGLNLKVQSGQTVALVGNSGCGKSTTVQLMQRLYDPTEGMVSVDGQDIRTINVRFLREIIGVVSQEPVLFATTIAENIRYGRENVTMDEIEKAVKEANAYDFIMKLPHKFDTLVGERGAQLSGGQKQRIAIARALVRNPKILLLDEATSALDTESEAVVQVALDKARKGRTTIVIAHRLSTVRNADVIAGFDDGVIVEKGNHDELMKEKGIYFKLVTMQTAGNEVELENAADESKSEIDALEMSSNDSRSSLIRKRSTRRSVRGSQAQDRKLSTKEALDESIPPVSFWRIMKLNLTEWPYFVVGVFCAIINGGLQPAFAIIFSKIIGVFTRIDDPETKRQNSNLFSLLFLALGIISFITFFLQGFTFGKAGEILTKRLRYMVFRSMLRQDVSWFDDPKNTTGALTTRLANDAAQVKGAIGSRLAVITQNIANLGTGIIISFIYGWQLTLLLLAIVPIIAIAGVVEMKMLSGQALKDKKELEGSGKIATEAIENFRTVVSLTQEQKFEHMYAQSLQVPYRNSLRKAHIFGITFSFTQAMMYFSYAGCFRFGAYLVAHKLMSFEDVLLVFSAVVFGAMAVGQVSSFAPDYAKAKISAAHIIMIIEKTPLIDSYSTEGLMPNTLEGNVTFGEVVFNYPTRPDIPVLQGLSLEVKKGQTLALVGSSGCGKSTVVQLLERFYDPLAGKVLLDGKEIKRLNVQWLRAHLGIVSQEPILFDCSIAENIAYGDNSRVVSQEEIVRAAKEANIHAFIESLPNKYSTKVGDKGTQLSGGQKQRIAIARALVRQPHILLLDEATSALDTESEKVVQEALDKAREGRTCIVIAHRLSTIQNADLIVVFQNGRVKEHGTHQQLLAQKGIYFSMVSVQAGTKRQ
T2 sequence (P08183 whole entry): as above

| Structure (SMILES) | inletting of doxorubicin in the cells (P-glycoprotein [1]; [5]) | endocellular accumulation (P-glycoprotein [1]) | other results |
| --- | --- | --- | --- |
| COc1cccc(CCc2ccccc2OCc2ccccn2)c1 [EB12, 2({2-[2-(3-methoxyphenyl)ethyl]phenoxy}methyl]pyridine] | increase | very high | effectiveness in P-glycoprotein inhibition relative to Verapamil and EB27 (P-glycoprotein [1]; [5]): 5 fold |
| COc1cccc(CCc2ccccc2OCCCN2CCN(c3ncccn3)CC2)c1 [EB25, 3-{2-[2-(3-methoxyphenyl)ethyl]phenoxy}propan-1-[4-(2-pyrimidyl)piperazine]] | – | – | endocellular accumulation (P-glycoprotein [2]): very high |
| COc1cccc(CCc2ccccc2OCc2cccc(OC)c2)c1 [EB27, 1-[(3-methoxybenzyl)oxy]-2-[2-(3-methoxyphenyl)ethyl]benzene] | increase | very high | – |
| c1ccc(CCc2ccccc2OCc2ccccc2)cc1 [EB 30, 1-(benzyloxy)-2-(2-phenylethyl)benzene] | – | – | Category of interference with P-gp activity (P-gp [3]): IIB |
| COc1cc2c(cc1OC)CN(CCc1ccc(NC(=O)c3cccc4c(=O)c5cccc(OC)c5[nH]c34)cc1)CC2 [GF120918] | – | – | classification as pure inhibitor of P-gp (P-gp [4]): sole pure inhibitor of P-gp |
